The values that follow come from patent US20080293969A1, “18F-Labeled Daa Analogues and Method of Labeling These Analogues as Positron Emission Tomography (Pet) Tracers For Imaging Peripheral Benzodiazepine Receptors” (GE Healthcare Limited, priority 2005, published 2008).

Structures are written as SMILES.

The target of data set [1] is PBR (Homo sapiens, UniProt P30536). The following applies: reported, Drug Dev. Research, 2001, vol. 52, 475-484; cited from earlier work.
Data set [2] can be described thus: Biodistribution in rats. The class given is in vivo, male Sprague-Dawley rats. The following applies: 10 MBq/kg tail vein, 15 min post-injection. The procedure: SAN1 at 10 MBq/kg was injected in the tail vein of male Sprague-Dawley rats. Rats were sacrificed 15 min post-injection and blood, cortex, olfactory bulb, adrenal and cerebellum were dissected, weighed and radioactivity in the organs was measured. Uptake in organs was expressed as Standardized Uptake Value, SUV. The scope of this experiment was to assess blood brain penetration of the radiolabeled compound as well as its distribution to organs known to express PBR, e.g. adrenal medulla. […] Additionally, we observed a large uptake of SAN1 in adrenal which is the peripheral organ with the highest density of PBRs. Biodistribution data from 4 rats was summarized and is shown in the diagram below, error bars represent the SEM.

For data set [3], the system named is peripheral benzodiazepine receptors (PBR). In words: Frozen section autoradiography. The class given is binding, pig. The following applies: frozen section autoradiography. The procedure:
(§1) Frozen Section Autoradiography.
(§2) Cryosections of pig adrenal, rat heart and rat brain were incubated with [^18F] labeled N-(2,5-dimethoxybenzyl)-3-fluoro-N-(5-fluoro-2-phenoxy-phenyl)propanamide (SAN1) for 40 min at R.T. in 50 mM Tris-HCl, pH 7.4, in the presence or absence of 1 μM PK11195 (selective PBR ligand). Thereafter, sections were washed in buffer 3×1 min, dried in a heated oven (37° C.) and exposed to phosphor imaging plates for 240 min. Assessment of the selectivity of the radioligand for PBRs was assessed by comparing the regional distribution of radioactivity with known distribution of PBRs in tissue. Another parameter investigated was the blocking effect in sections which were co-incubated with an excess of PK11195.

Data set [4] addresses T1, peripheral benzodiazepine receptors (PBR) (Sus scrofa, UniProt Q6UN27).
T1 construct: from tissue; host or cells: pig adrenal cryosections (rat heart and rat brain sections were run in the same assay)
T1 sequence (Q6UN27 1-169): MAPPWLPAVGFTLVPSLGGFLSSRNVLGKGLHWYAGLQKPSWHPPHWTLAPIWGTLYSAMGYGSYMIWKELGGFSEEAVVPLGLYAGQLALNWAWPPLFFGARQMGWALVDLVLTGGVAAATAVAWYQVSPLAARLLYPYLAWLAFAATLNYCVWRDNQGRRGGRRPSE
Description: Frozen section autoradiography. Type of data set: binding, pig. The procedure: as §1, §2

Sequence of PBR (P30536 whole entry, species assumed): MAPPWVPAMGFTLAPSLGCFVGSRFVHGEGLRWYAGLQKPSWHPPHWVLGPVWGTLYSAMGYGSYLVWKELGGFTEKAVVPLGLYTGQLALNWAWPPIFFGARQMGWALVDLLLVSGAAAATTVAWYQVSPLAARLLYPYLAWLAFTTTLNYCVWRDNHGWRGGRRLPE

Take `CC(=O)N(Cc1ccccc1OC(C)C)c1ccc(Cl)cc1Oc1ccccc1` [DAA1097, N-(4-chloro-2-phenoxyphenyl)-N-(2-isopropoxybenzyl)-acetamide]: in data set [1], the “affinity and selectivity for PBR” value is “high affinity selective ligands”.
In the case of `COc1ccc(OC)c(CN(C(C)=O)c2cc(F)ccc2Oc2ccccc2)c1` [DAA1106, N-(2,5-dimethoxybenzyl)-N-(5-fluoro-2-phenoxyphenyl)acetamide], the “affinity and selectivity for PBR” value in data set [1] is listed as “high affinity selective ligands”.
Take `COc1ccc(OC)c(CN(C(=O)CC[18F])c2cc(F)ccc2Oc2ccccc2)c1` [SAN1, [^18F] labeled N-(2,5-dimethoxybenzyl)-3-fluoro-N-(5-fluoro-2-phenoxy-phenyl)propanamide]: the “brain to blood ratio” value in data set [2] (all regions analyzed (cortex, olfactory bulb, cerebellum), particularly olfactory bulb) was “above 1”. Also, the uptake in adrenal entry in data set [2] (uptake expressed as SUV) is “large uptake”. For the same compound, the “binding and specificity for PBR-rich tissues” value in data set [3] was “good binding and specificity”. The “blocking of adrenal medulla uptake by an excess of PK11195” value in data set [4] (co-incubated with 1 μM PK11195) is “completely blocked”. The “uptake in adrenal medulla” value in data set [4] (cryosections of pig adrenal, incubated 40 min at R.T., 50 mM Tris-HCl pH 7.4) is recorded as “high uptake”.
